Data from EP0059606A1, “Benzothiopyrano(2,3-d)-v-triazole derivatives and pharmaceutical compositions containing them” (BEECHAM GROUP PLC, priority 1981, dated 1982).

Test system: rat PCA
Assay: Passive cutaneous anaphylaxis (PCA) in rats
Type: in vivo
Conditions: iv, 0 h, carrier PBS with NaHCO3, time 0 mins between administration and antigen challenge
Description: Serum containing heat labile homocytotropic antibody was raised in rats to crystallised ovalbumin (Grade 3 Sigma) by the Method of I. Mota (Immunology 7, 681 (1964)) using Bordetella pertussis vaccine ([…] Burroughs Welcome) as adjuvant.
Passive cutaneous anaphylaxis (PCA) was carried out by a method based on that of Ovary and Bier, (Proc. Soc. Exp. Bio. Med., 81; 584 (1952)) as modified by Goose and Blair (Immunology, 16, 749 (1969)) Male Sprague Dawley rats 230 - 340 gm were given 0.1 ml of each of six two fold serial dilutions of pooled antiserum in 0.9% saline (Polyfusor Boots) injected intradermally into separate sites on their shaved backs. 72 Hours later the rats were challenged by intravenous injection of 0.3 ml of a 1% solution of ovalbumin in isotonic saline buffered with 0.05M, pH 7.2 Sorenson Buffer (Bactohaemagglutination buffer Difco Laboratories), mixed with 0.2 ml of a 5% solution of Pontamine Sky Blue (6 BX C.l. 24410 Raymond A Lamb) in isotonic saline. The rats were killed after 20 minutes and the diameter of the blue wheals at the antibody injection sites was measured on the outer surface of the skin. The starting dilution of the serum was adjusted so that there was no response, after challenge, at the injection site of the highest dilution and a maximum response at the lowest dilutions. Typically, six twofold serial dilutions of the serum from 1/4 to 1/128 were used.
Compounds were tested for their ability to reduce the diameter of the wheals at those intradermal sites which in control animals gave less than maximum response. Each dose of the compounds was administered to six rats at a measured time prior to intravenous challenge with ovalbumin. Control groups of six rats were given the same volume (0.2 ml: 100g^-1)of carrier fluid at the same time prior to the challenge.
The results were calculated as follows: % inhibition of PCA = 100 (1 - a/b) where a = the sum of the diameters of the wheals produced in the test animal at the sites of antibody dilutions as used in control groups and b = the mean sum of the diameters of the wheals produced in the control group of animals at those antibody sites where at least five out of six of the animals gave less than maximum response. A typical variation in the control group of animals was SEM+ 6%.

O=c1c2ccccc2[s+]([O-])c2nn[nH]c12 (racemic) [Example 9b, 9-Oxo-lH,9H-benzothiopyrano[2,3-dl-v-triazole-4-oxide]
inhibition in vivo at 0.5 mg/kg: 30% | inhibition in vivo at 2 mg/kg: 61%

O=c1c2ccccc2sc2nn[nH]c12 [Example 1f, 9-Oxo-1H,9H-benzothiopyrano[2,3-d]-v-triazole]
inhibition in vivo at 1 mg/kg: 35% | inhibition in vivo at 10 mg/kg: 90%

O=C1c2ccccc2S(=O)(=O)c2nn[nH]c21 [Example 2b, 9-Oxo-1H,9H-benzothiopyrano[2,3-d]-v-triazole-4,4-dioxide]
inhibition in vivo at 10 mg/kg: 68%

Cc1ccc2sc3nn[nH]c3c(=O)c2c1 [Example 3d, 7-Nethyl-9-oxo-1H,9H-benzothiopyrano[2,3-d]-v-triazole]
inhibition in vivo at 10 mg/kg: 42%

Cc1ccc2c(c1)C(=O)c1[nH]nnc1S2(=O)=O [Example 4b, 7-Methyl-9-oxo-IH, 9H-benzothiopyrano[2,3-d]-v-triazole-4,4-dioxide]
inhibition in vivo at 10 mg/kg: 65%

Cc1cc2sc3nn[nH]c3c(=O)c2cc1C [Example 6d, 6,7-Dimethyl-9-oxo-1H,9H-benzothiopyrano[2,3-d]-v-triazole]
inhibition in vivo at 0.5 mg/kg: 65% | inhibition in vivo at 1 mg/kg: 86% | inhibition in vivo at 2 mg/kg: 90%

Cc1cc2c(cc1C)S(=O)(=O)c1nn[nH]c1C2=O [Example 7b, 6,7-Dimethyl-9-oxo-lH,9H-benzothiopyrano[2,3-d]-v-triazole-4,4-dioxide]
inhibition in vivo at 0.5 mg/kg: 56% | inhibition in vivo at 1 mg/kg: 59% | inhibition in vivo at 2 mg/kg: 74%

COc1ccc2sc3nn[nH]c3c(=O)c2c1 [Example 8d, 7-Methoxy-9-oxo-lH,9H-benzothiopyrano[2,3-dl-v-triazole]
inhibition in vivo at 0.5 mg/kg: 34% | inhibition in vivo at 2 mg/kg: 58%
